In brackets after ≈: the same amount, converted by molar mass. Where two headings read alike, the source gives them in different places. Values belong to the compound of their own block, whether it stands above or below them.
Key:
EV-A71 [1] = assay: microbe, parasite or virus in culture; type: cell-based, Enterovirus 71 (EV-A71) strain 41 (5865/SIN/000009); details: for inhibition at 54 µg/mL: EVA71, RD, read-out: Inhibition of EV-A71 viral infectivity, virucidal assay
Procedure: (§1) The plaque assay was performed using the method described by Tan et al. (2012) with minor modifications. Briefly, 6 well plates with 6 × 10^5 RD cells/mL were prepared and incubated to grow overnight at 37 °C. The supernatants collected from antiviral assays were serially diluted (10-folds) and the cell monolayer was infected with each dilution. The plates were incubated at 37 °C for 1 h. After removal of the inoculum, 1.5–2 mL of 0.9% of high viscosity carboxy methyl cellulose (CMC) (Sigma Aldrich, MO, USA) with 2% FBS in DMEM (overlay media) were added to each well. After incubation for 3 days, the overlaid media was removed. The cells were washed three times with phosphate buffered saline (PBS), fixed with 3.7% formaldehyde and stained with 0.5% crystal violet. The plaques were counted manually against a white background and pictures were taken using the CTL Immunospot® S6 Versa (Cleveland, OH, USA). All experiments were performed as three independent replicates.
(§2) RNA extractions were performed using the QIAamp ViralRNA mini kit (Qiagen, Hilden, Germany) according to the manufacturer’s instructions. TaqMan® Fast virus 1-step master mix (ABI, Carlsbad, Calif, USA) was used to carry out qRT-PCR in the CFX96 TouchTM Real-Time PCR Detection System (Bio-Rad, Calif, USA). The cDNA synthesis was carried out by reverse transcription for 5 min at 50 °C and subsequently amplified for 40 cycles at 95 °C for 3 s, 60 °C for 30 s. A standard graph was plotted using serial dilutions of the standard viral stock. The threshold cycle value (Cq) was calculated using the default setting of the machine. All experiments were performed in triplicates.
RD cells (2 × 10^4/well) were grown overnight in wells of a 96 well plate. The virus was pre-treated with each of the flavonoids for 1 h at MOI of 1 (pfu/ml = 2 × 10^4/0.1 mL). Cells were infected with the pre-treated virus-flavonoid-mixture. The inoculum was allowed to incubate with the RD cells at 37 ° for 1 h. After 1 h, the inoculum was removed, cells were washed with PBS and maintenance media was replaced. After 24 h, the supernatant was collected and infectious viral titers were quantified using the plaque assay. RNA copy number was determined by qRT-PCR [21] [Supplementary Figure S2(a)].

Vero cells = assay: Cytotoxicity assay (MTS) in Vero cells
Procedure: (§3) CellTiter 96® AQueous One Solution Cell Proliferation MTS [3-(4,5-dimethylthiazol-2-yl)-5-(3-carboxymethoxyphenyl)-2-(4-sulfophenyl)-2H-tetrazolium] assay kit (Promega, Madison, WI, USA) was used to evaluate the cytotoxicity of the three flavonoids according to the manufacturer’s instruction. Briefly, RD or Vero cells were seeded overnight in 96 well plates with a density of 2 × 10^5 cells/mL. Cells were then treated with various concentrations of silymarin (6.25, 12.5, 25, 50,100 and 200 μg/mL), baicalein (1.68, 3.37, 6.75, 13.5, 27, 54 and 108, μg/mL) and baicalin (2.78, 5.57, 11.15, 22.31, 44.63 and 89.26 μg/mL) prepared in maintenance media. RD or Vero cells without test compounds served as a negative control. The plate was further incubated for 24 h at 37 °C. An aliquot of 20 μL of MTS solution was added to each well and the plate was incubated for 1 h at 37 °C. The absorbance was measured at 490 nm with an Infinite 200 Pro Multiplate Reader (Tecan, Männdedorf, Switzerland) (Supplementary Figure S1). The half-maximal cytotoxic concentration (CC50) and 10% cytotoxic concentration (CC10) for each flavonoid were determined using GraphPad Prism software, version 7 (GraphPad Software, Calif, USA).

RD cells [2] = assay: Cytotoxicity assay (MTS) in RD cells
Procedure: as §3

[3] = Cytotoxicity assay (MTS) in RD cells; details: human, CC50 (half maximal cytotoxic concentration), 24 h, MTS assay
Procedure: as §3

EV-A71 [4] = tested on: EV-A71; set-up: method as in Zhang et al. (2014) [27]; details: cells treated with 30 μM prior to EV-A71 infection; ref Zhang et al. (2014) [27]; cited from earlier work
EV-A71 [5] = assay: Post-infection assay; type: cell-based, Enterovirus 71 (EV-A71) strain 41 (5865/SIN/000009); details: added 1 h after RD cells were infected, data not shown
Procedure: as §1, with “All experiments were performed as three independent replicates.” left out
RNA extractions were performed using the QIAamp ViralRNA mini kit (Qiagen, Hilden, Germany) according to the manufacturer’s instructions. […] The threshold cycle value (Cq) was calculated using the default setting of the machine. […]
RD cells (2 × 10^4/well) were grown overnight in wells of a 96 well plate. […] After 24 h, the supernatant was collected and infectious viral titers were quantified using the plaque assay. RNA copy number was determined using qRT-PCR [21] […]

EV-A71 [6] = assay: Time course assay for virucidal activity; type: cell-based, Enterovirus 71 (EV-A71) strain 41 (5865/SIN/000009); details: 54 μg/mL, 60 min co-incubation with EV-A71 at 37 °C, plaque assay
Procedure: as §1, with “After removal of the inoculum, 1.5–2 mL of 0.9% of high viscosity carboxy methyl cellulose (CMC) (Sigma Aldrich, MO, USA) with 2% FBS in DMEM (overlay media) were added to each well.” left out, “replicates. RD cells (2 × 10^4/well) were grown overnight in wells of a 96 well plate. […] Cells were infected with the pre-treated virus-flavonoid-mixture and allowed to incubate with the RD cells at 37 °C for 1 h. After 1 h, the inoculum was removed, cells were washed with PBS and maintenance media was added. After 24 h, the supernatant was collected and infectious viral titers were quantified using the plaque assay.” for “replicates.”

EV-A71 [7] = assay: Cell protection assay (RD cells pre-treated); type: cell-based, Enterovirus 71 (EV-A71) strain 41 (5865/SIN/000009); details: 54 μg/mL; for inhibition at 54 µg/mL: Enterovirus A, EVA71, RD, read-out: Inhibition of EV-A71 viral infectivity, cell protection assay
Procedure: as §1, §2
RD cells (2 × 10^4/well) were seeded overnight in each well within a 96 well plate. Cells were treated with different concentrations of a flavonoid for 1 h at 37 °C. After incubation, flavonoid containing media was removed and cells were washed with PBS. […] The supernatant was collected after 24 h and the infectious viral titers were quantified using the plaque assay. RNA copy number was determined using qRT-PCR [21] […]

EV-A71 [8] = assay: microbe, parasite or virus in culture; type: cell-based, Enterovirus 71 (EV-A71) strain 41 (5865/SIN/000009); details: for inhibition at 54 µg/mL: EVA71, 54 μg/mL, read-out: Inhibition of EV-A71 viral infectivity, comprehensive assay
Procedure: as §1, §2
RD cells (2 × 10^4/well) were grown overnight in wells of a 96 well plate. A monolayer of RD cells was pre-treated with various concentrations of a flavonoid for 1 h and incubated at 37 °C. Simultaneously, the virus at MOI of 1 (pfu/ml = 2 × 10^4/0.1 mL) was pre-treated with the same concentrations of the flavonoid for 1 h at 37 °C. After incubation, flavonoid containing media was removed and the RD cells were washed with PBS. The flavonoid-treated virus was added to the pre-treated RD cells for 1 h at 37 °C. The inoculum was removed, RD cells were washed with PBS and replaced with the maintenance media (DMEM supplemented with 2% FBS). After 24 h, the supernatant was collected and infectious viral titers were quantified using the plaque assay. RNA copy number was determined using qRT-PCR [21] [Supplementary Figure S2(e)].

[9] = Cytotoxicity assay (MTS) in Vero cells; details: African green monkey, Vero cells
Procedure: as §3

RD cells [10] = tested on: RD cells; set-up: method as in Li et al. (2015) [16]; details: ref Li et al. (2015) [16]; cited from earlier work

Compound: Silymarin
Virucidal Assay SI (CC50/IC50) (EV-A71 [1]): 10.53
CC10 (Vero cells): 314.2 ± 0.06 µg/mL
CC50 (Vero cells): 753 ± 0.17 µg/mL
Concentration up to which no significant cytotoxicity was shown (Vero cells): ≤ 200 µg/mL

IC50 (EV-A71 [8]; Enterovirus A, EVA71, plaque assay, RD cells and virus both pre-treated 1 h, read-out: Comprehensive Assay IC50): 2.27 ± 4.93 µg/mL (≈ 8.4 µM)
Compound: O=c1cc(-c2ccccc2)oc2cc(O)c(O)c(O)c12 [Baicalein]
CC10 (10% cytotoxic concentration) (RD cells [2]; 24 h, MTS assay): 90.93 ± 3.94 µg/mL (≈ 336 µM)
CC10 (10% cytotoxic concentration) (RD cells [2]; 24 h, MTS assay, listed as baicalein): 90.93 µg/mL (≈ 336 µM)
Concentration up to which no significant cytotoxic effects were observed (RD cells [2]; 24 h incubation): ≤ 54 µg/mL
CC50 at 24 h ([3]; extrapolated value, above the tested concentration of 108 μg/mL): 421.5 ± 3.23 µg/mL (≈ 1560 µM)
Effect as a prophylactic agent against EV-A71 (EV-A71 [4]): non-effective
Inhibition of EV-A71 post-infection (EV-A71 [5]): non-inhibitory
Virucidal Assay SI (CC50/IC50) (EV-A71 [1]): 13.64
Inhibition of EV-A71 viral infectivity, virucidal assay (EV-A71 [1]; 54 μg/mL, plaque assay): 65.0%
inhibition at 54 µg/mL (EV-A71 [1]; Enterovirus A, 54 μg/mL, plaque assay): 64%
inhibition at 54 µg/mL (EV-A71 [1]; Enterovirus A, 54 μg/mL, qRT-PCR (RNA copy number)): 78.8%
IC50 (EV-A71 [1]; Enterovirus A, EVA71, plaque assay, RD cells, virus pre-treated 1 h, MOI 1, read-out: Virucidal Assay IC50): 30.9 ± 5.5 µg/mL (≈ 114 µM)
Virucidal effects against EV-A71 (time course) (EV-A71 [6]): 60%
Inhibition of EV-A71 viral infectivity, cell protection assay (EV-A71 [7]; plaque assay): no inhibition
inhibition at 54 µg/mL (EV-A71 [7]; plaque assay): 2.2%
inhibition at 54 µg/mL (EV-A71 [7]; qRT-PCR): 0%
Comprehensive Assay SI (CC50/IC50) (EV-A71 [8]): 185.6
inhibition at 54 µg/mL (EV-A71 [8]; Enterovirus A, plaque assay): 89.4%
inhibition at 54 µg/mL (EV-A71 [8]; Enterovirus A, qRT-PCR (RNA copy number)): 83%
CC50 at 24 h [9]: 828.7 ± 0.93 µg/mL (≈ 3070 µM)
CC10 (Vero cells; Vero cells, 24 h, MTS assay): 148.9 ± 0.25 µg/mL (≈ 551 µM)

Compound: O=C(O)[C@H]1O[C@@H](Oc2cc3oc(-c4ccccc4)cc(=O)c3c(O)c2O)[C@H](O)[C@@H](O)[C@@H]1O [Baicalin, reference compound]
CC10 (10% cytotoxic concentration) (RD cells [2]; 24 h, MTS assay): 5.46 ± 5.02 µg/mL (≈ 12.2 µM)
CC50 (half maximal cytotoxic concentration) (RD cells [2]; 24 h, MTS assay): 42.21 ± 4.15 µg/mL (≈ 94.6 µM)
CC10 (10% cytotoxic concentration) (RD cells [2]; 24 h, MTS assay, listed as baicalin): 5.46 µg/mL (≈ 12.2 µM)
CC50 at 24 h [3]: 42.2 µg/mL (≈ 94.5 µM)
CC50 (RD cells [10]): 823.53 µg/mL (≈ 1840 µM)
CC50 at 24 h [9]: 30.47 ± 0.06 µg/mL (≈ 68.3 µM)
CC10 (Vero cells; Vero cells, 24 h, MTS assay): 1.718 ± 0.16 µg/mL (≈ 3.85 µM)

Source: PMC7092479, “Antiviral activity of silymarin in comparison with baicalein against EV-A71” (BMC Complementary Medicine and Therapies, 2020)
